The results in this text go back to patent EP0591582B1, “Hexahydrobenzo (f) quinolinones as 5-alpha-reductase inhibitors” (ELI LILLY AND COMPANY, priority 1992, dated 1994).

The target of the experiment is T1, 5α-reductase (Homo sapiens, UniProt P18405).
T1 construct: host or cells: Hs68 human genital skin fibroblasts
T1 sequence (P18405 1-259): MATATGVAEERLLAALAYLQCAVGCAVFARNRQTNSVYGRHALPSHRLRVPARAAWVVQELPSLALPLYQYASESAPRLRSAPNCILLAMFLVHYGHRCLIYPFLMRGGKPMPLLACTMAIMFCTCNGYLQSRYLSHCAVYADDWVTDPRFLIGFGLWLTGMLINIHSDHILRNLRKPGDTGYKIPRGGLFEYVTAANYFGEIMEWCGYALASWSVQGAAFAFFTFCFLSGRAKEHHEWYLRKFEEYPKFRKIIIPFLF
As to the kind of experiment: 5α-Reductase activity (conversion of testosterone to DHT) in Hs68 human genital skin fibroblasts, TLC of radiolabelled steroids. The following applies: Hs68 cells, four hours incubation, 0 equals no activity, 100 equals total inhibition; for inhibition at 316 µM: Concentration 0.316 mM; for inhibition at 10000 µM: Concentration 10.0 mM. In kind it is cell-based. How it is done:
Cell Culture: 5α-Reductase activity was measured using Hs68 human genital skin fibroblasts which were originally purchased from the American Type Culture Collection(Rockville, MD). The cells were grown in Dulbecco's Modified Eagle's Medium (DMEM) plus 10% stripped fetal bovine serum which was supplemented with amphotericin B ([…]) and gentamicin ([…]) (GIBCO, Grand Island, NY). The serum was stripped of endogenous steroids by incubation with dextran-coated charcoal prior to its addition to the media. The cells were maintained at 37°C in an atmosphere of 95% air, 5% CO2 and were passaged every 7-10 days by exposure to a trypsin-EDTA solution (0.025% trypsin, 0.265 mM EDTA). Prior to the assay the Hs68 cells were harvested and plated in Falcon 6-well plates (Becton Dickinson Labware, Lincoln Park, NJ) at a density of 6 x 10^4 cells per well. The cells were allowed to grow for 4-5 days or until they reached approximately 80% confluence.
Assay Method I: The substrate was prepared by dissolving unlabeled testosterone (Sigma Chemical Co., St. Louis, MO) in absolute ethanol followed by the addition of [7-^3H (N)]-testosterone (23.3 Ci/mmole, New England Nuclear, Boston, MA). The steroid solution was taken to dryness under a stream of nitrogen and then reconstituted in media.
Assay Method II: The substrate used for this method was [^14C]-testosterone (50 mCi/mmol) (New England Nuclear, Boston, MA). An aliquot of the substrate was taken to dryness under a stream of nitrogen. After the addition of […] of ethanol, the testosterone was brought up in an appropriate volume of media.
Sample Preparation: The test compounds were dissolved in absolute ethanol in order to achieve the desired concentration. Subsequent dilutions of the test compounds with media were performed by the Biomek 1000 Automated Laboratory Workstation (Beckman Instruments, Palo Alto, CA). The existing media in the sample wells was aspirated and replaced with fresh media. Test compound was then added to the wells followed by the addition of 0.5 ml of the substrate. The volume of the incubation mixture was maintained at 2.0 ml. The final substrate concentration was […]. The concentration of the test compounds ranged from 0.001-15 mM. An additional three wells (background) containing media and substrate but no cells were also included to account for the non-enzymatic metabolism of the substrate. The plates were returned to the incubator and incubated for four hours.
At the end of the incubation the media was collected and transferred to an extraction tube containing 5 ml of toluene-ethanol (9:1), to which has been added […] each of unlabeled carrier steroids (estriol, estradiol, estrone, 5α-androstan-3α,17b-diol, 5α-androstan-3b,17b-diol, 4-androstene-3,17-dione, 5α-androstan-3,17-dione, testosterone, and 5α-dihydrotestosterone) (Steraloids, Inc. Wilton, NH). In the case of Assay Method I the extraction tube also contained 1,000 and 10,000 dpm of [4-^14C]-dihydrotestosterone(50-60 mCi/mmol) and [4-^14C]-testosterone (50 mCi/mmol) (New England Nuclear, Boston, MA), respectively. The [^14C]-steroids were included as recovery standards to quantify procedural losses. A small amount of NaCl was also added to the extraction tubes to prevent foaming. The samples were vortexed for approximately 30 seconds and then centrifuged for 10 minutes at 500 x g. The organic phase was collected and the samples taken to dryness, redissolved in dichloromethane-methanol (9:1) and were analyzed by thin layer chromatography using one of the methods described below.
Chromatography Method I (two-dimensional): The extracted samples were appled to silica gel 60F254, 0.25 mm thick, thin layer chromatography plates (EM Science, Cincinnati, OH). The plates were developed in the first dimension with a solvent system containing dichloromethaneethyl acetate-methanol-acetic acid (160:38:1.5:0.5, Mallinckrodt Inc., Paris, KY). […]

In general, inhibition refers to the drop in the measured response relative to a control, in per cent. Low values mean a weak effect, high ones a strong effect. `O=C1CCC2=C(CCc3cc(Br)ccc32)N1` [Example 1, 8-bromo-1,2,3,4,5,6-hexahydrobenzo[f]quinolin-3-one] had an inhibition at 316 µM of 73%. On to `CN1C(=O)CCC2=C1CCc1cc(Br)ccc12` [Example 2, 8-bromo-4-methyl-1,2,3,4,5,6-hexahydrobenzo-[f]quinolin-3-one], for which at 10000 µM the inhibition was 98%. With `O=C1CCC2=C(CCc3cc(Cl)c(Cl)cc32)N1` [Example 3, 8,9-dichloro-1,2,3,4,5,6-hexahydrobenzo[f]quinolin-3-one], the inhibition at 316 µM was found to be 85%. In turn, `CN1C(=O)CCC2=C1CCc1cc(Cl)ccc12` [Example 4, 8-chloro-4-methyl-1,2,3,4,5,6-hexahydrobenzo[f]quinolin-3-one] displayed an inhibition at 10000 µM of 91%. On the same count and under the same terms, the same measure for `Cc1ccc2c(c1)CCC1=C2CCC(=O)N1C` [Example 5, 4,8-dimethyl-1,2,3,4,5,6-hexahydrobenzo[f]quinolin-3-one]: 100%; for `CN1C(=O)CCC2=C1CCc1cc(F)ccc12` [Example 6, 8-fluoro-4-methyl-1,2,3,4,5,6-hexahydrobenzo[f]quinolin-3-one]: 81%; for `O=C1CCC2=C(CCc3ccccc32)N1` [Example 8, 1,2,3,4,5,6-hexahydrobenzo[f]quinolin-3-one]: 63%. Consider `O=C1CCC2=C(CCc3cc(F)ccc32)N1` [Example 9, 8-fluoro-1,2,3,4,5,6-hexahydrobenzo[f]quinolin-3-one], for which 10000 µM produced 76% inhibition.

For `Cc1ccc2c(c1)CCC1=C2CCC(=O)N1` [Example 13, 8-methyl-1,2,3,4,5,6-hexahydrobenzo[f]quinolin-3-one], the inhibition at 10000 µM was determined as 100%. In turn, `CC1(C)CC2=C(CCC(=O)N2)c2ccc(Br)cc21` [Example 14, 8-bromo-6,6-dimethyl-1,2,3,4,5,6-hexahydrobenzo[f]quinolin-3-one] returned an inhibition at 316 µM of 30%. `CC(C)(C)c1ccc2c(c1)CCC1=C2CCC(=O)N1` [Example 15, 8-t-butyl-1,2,3,4,5,6-hexahydrobenzo[f]quinolin-3-one] came in with an inhibition at 3160 µM (Concentration 3.16 mM) of 30%. The % Inhibition is the change of the read-out against control, counted positive when it falls. In the case of `O=C1CCC2=C(CCc3cccc(F)c32)N1` [Example 20, 10-fluoro-1,2,3,4,5,6-hexahydrobenzo[f]quinolin-3-one], the “% Inhibition” value (Concentration 1.0 (1.00) mM) was 22%. As for `CCCCN1C(=O)CCC2=C1CCc1cc(F)ccc12` [Example 25, 8-fluoro-4-n-butyl-1,2,3,4,5,6-hexahydrobenzo[f]quinolin-3-one], at 10000 µM the inhibition was 56%.
